{
  "source": "patent US10118935B2",
  "about": "“Melampomagnolide B dimers” (priority 2014, dated 2018)",
  "key": {"[1]": {"tested_on": "SN12C", "assay": "NCI 60 cell line five dose, Renal Cancer"}, "[2]": {"tested_on": "UO-31", "assay": "NCI 60 cell line five dose, Renal Cancer"}, "[3]": {"tested_on": "MCF7", "assay": "NCI 60 cell line five dose, Breast Cancer"}, "[4]": {"tested_on": "OVCAR-3", "assay": "NCI 60 cell line five dose, Ovarian Cancer"}, "[5]": {"tested_on": "OVCAR-5", "assay": "NCI 60 cell line five dose, Ovarian Cancer"}, "[6]": {"tested_on": "NCI/ADR-RES", "assay": "NCI 60 cell line five dose, Ovarian Cancer", "conditions": "NCI/ADR-"}, "[7]": {"tested_on": "SK-OV-3", "assay": "NCI 60 cell line five dose, Ovarian Cancer"}, "[8]": {"tested_on": "PC-3", "assay": "NCI 60 cell line five dose, Prostate Cancer"}, "[9]": {"tested_on": "DU-145", "assay": "NCI 60 cell line five dose, Prostate Cancer"}, "[10]": {"tested_on": "HOP-92", "assay": "NCI 60 cell line five dose, Non-Small Cell Lung Cancer"}, "[11]": {"tested_on": "NCI-H460", "assay": "NCI 60 cell line five dose, Non-Small Cell Lung Cancer"}, "[12]": {"tested_on": "NCI-H522", "assay": "NCI 60 cell line five dose, Non-Small Cell Lung Cancer"}},
  "data": [
    {"smiles": "C=C1C(=O)O[C@H]2[C@H]1CC/C(COC(=O)NCCCCNC(=O)OC/C1=C/CC[C@@]3(C)O[C@H]3[C@H]3OC(=O)C(=C)[C@@H]3CC1)=C\\CC[C@@]1(C)O[C@@H]21", "note": "[JVM 3-54, bis(((1aR,7aS,10aS,10bS,E)-1a-Methyl-8-methylene-9-oxo-1a,2,3,6,7,7a,8,9,10a,10b-decahydrooxireno[2′,3′:9,10]cyclodeca[1,2-b]furan-5-yl)methyl)butane-1,4-diyldicarbamate]", "values": [
      {"measurement": "TGI", "setting": "[1]", "result": 10.1, "unit": "µM"},
      {"measurement": "Percent Growth", "setting": "[1]; Log10 Concentration −4.0", "result": "−84", "unit": "%"},
      {"measurement": "Percent Growth", "setting": "[1]; Log10 Concentration −6.0", "result": 89, "unit": "%"},
      {"measurement": "Percent Growth", "setting": "[1]; Log10 Concentration −7.0", "result": 101, "unit": "%"},
      {"measurement": "Percent Growth", "setting": "[1]; Log10 Concentration −8.0", "result": 100, "unit": "%"},
      {"measurement": "CC50", "setting": "[1]; read-out: LC50", "result": 39.5, "unit": "µM"},
      {"measurement": "GI50", "setting": "[2]", "result": 7.61, "unit": "µM"},
      {"measurement": "TGI", "setting": "[2]", "result": 20.9, "unit": "µM"},
      {"measurement": "Percent Growth", "setting": "[2]; Log10 Concentration −4.0", "result": "−95", "unit": "%"},
      {"measurement": "Percent Growth", "setting": "[2]; Log10 Concentration −5.0", "result": 45, "unit": "%"},
      {"measurement": "Percent Growth", "setting": "[2]; Log10 Concentration −6.0", "result": 88, "unit": "%"},
      {"measurement": "Percent Growth", "setting": "[2]; Log10 Concentration −7.0", "result": 84, "unit": "%"},
      {"measurement": "Percent Growth", "setting": "[2]; Log10 Concentration −8.0", "result": 86, "unit": "%"},
      {"measurement": "CC50", "setting": "[2]; read-out: LC50", "result": 47.7, "unit": "µM"},
      {"measurement": "TGI", "setting": "[3]", "result": 1.8, "unit": "µM"},
      {"measurement": "Percent Growth", "setting": "[3]; Log10 Concentration −4.0", "result": "−42", "unit": "%"},
      {"measurement": "Percent Growth", "setting": "[3]; Log10 Concentration −5.0", "result": "−69", "unit": "%"},
      {"measurement": "Percent Growth", "setting": "[3]; Log10 Concentration −6.0", "result": 24, "unit": "%"},
      {"measurement": "Percent Growth", "setting": "[3]; Log10 Concentration −7.0", "result": 87, "unit": "%"},
      {"measurement": "Percent Growth", "setting": "[3]; Log10 Concentration −8.0", "result": 92, "unit": "%"},
      {"measurement": "GI50", "setting": "[4]", "result": 0.693, "unit": "µM"},
      {"measurement": "TGI", "setting": "[4]", "result": 2.01, "unit": "µM"},
      {"measurement": "Percent Growth", "setting": "[4]; Log10 Concentration −4.0", "result": "−96", "unit": "%"},
      {"measurement": "Percent Growth", "setting": "[4]; Log10 Concentration −5.0", "result": "−93", "unit": "%"},
      {"measurement": "Percent Growth", "setting": "[4]; Log10 Concentration −6.0", "result": 40, "unit": "%"},
      {"measurement": "Percent Growth", "setting": "[4]; Log10 Concentration −7.0", "result": 101, "unit": "%"},
      {"measurement": "Percent Growth", "setting": "[4]; Log10 Concentration −8.0", "result": 101, "unit": "%"},
      {"measurement": "CC50", "setting": "[4]; read-out: LC50", "result": 4.76, "unit": "µM"},
      {"measurement": "GI50", "setting": "[5]", "result": 1.75, "unit": "µM"},
      {"measurement": "TGI", "setting": "[5]", "result": 3.69, "unit": "µM"},
      {"measurement": "Percent Growth", "setting": "[5]; Log10 Concentration −4.0", "result": "−72", "unit": "%"},
      {"measurement": "Percent Growth", "setting": "[5]; Log10 Concentration −5.0", "result": "−67", "unit": "%"},
      {"measurement": "Percent Growth", "setting": "[5]; Log10 Concentration −6.0", "result": 87, "unit": "%"},
      {"measurement": "Percent Growth", "setting": "[5]; Log10 Concentration −7.0", "result": 92, "unit": "%"},
      {"measurement": "Percent Growth", "setting": "[5]; Log10 Concentration −8.0", "result": 95, "unit": "%"},
      {"measurement": "CC50", "setting": "[5]; read-out: LC50", "result": 7.79, "unit": "µM"},
      {"measurement": "GI50", "setting": "[6]", "result": 37.7, "unit": "µM"},
      {"measurement": "Percent Growth", "setting": "[6]; Log10 Concentration −4.0", "result": 23, "unit": "%"},
      {"measurement": "Percent Growth", "setting": "[6]; Log10 Concentration −5.0", "result": 86, "unit": "%"},
      {"measurement": "Percent Growth", "setting": "[6]; Log10 Concentration −6.0", "result": 99, "unit": "%"},
      {"measurement": "Percent Growth", "setting": "[6]; Log10 Concentration −7.0", "result": 90, "unit": "%"},
      {"measurement": "Percent Growth", "setting": "[6]; Log10 Concentration −8.0", "result": 94, "unit": "%"},
      {"measurement": "CC50", "setting": "[6]; read-out: LC50", "result": "> 100", "unit": "µM"},
      {"measurement": "GI50", "setting": "[7]", "result": 12.7, "unit": "µM"},
      {"measurement": "TGI", "setting": "[7]", "result": 25.3, "unit": "µM"},
      {"measurement": "Percent Growth", "setting": "[7]; Log10 Concentration −4.0", "result": "−100", "unit": "%"},
      {"measurement": "Percent Growth", "setting": "[7]; Log10 Concentration −5.0", "result": 67, "unit": "%"},
      {"measurement": "Percent Growth", "setting": "[7]; Log10 Concentration −6.0", "result": 107, "unit": "%"},
      {"measurement": "Percent Growth", "setting": "[7]; Log10 Concentration −7.0", "result": 102, "unit": "%"},
      {"measurement": "Percent Growth", "setting": "[7]; Log10 Concentration −8.0", "result": 98, "unit": "%"},
      {"measurement": "CC50", "setting": "[7]; read-out: LC50", "result": 50.4, "unit": "µM"},
      {"measurement": "GI50", "setting": "[8]", "result": 2.55, "unit": "µM"},
      {"measurement": "TGI", "setting": "[8]", "result": 8.05, "unit": "µM"},
      {"measurement": "Percent Growth", "setting": "[8]; Log10 Concentration −4.0", "result": "−93", "unit": "%"},
      {"measurement": "Percent Growth", "setting": "[8]; Log10 Concentration −5.0", "result": "−9", "unit": "%"},
      {"measurement": "Percent Growth", "setting": "[8]; Log10 Concentration −6.0", "result": 91, "unit": "%"},
      {"measurement": "Percent Growth", "setting": "[8]; Log10 Concentration −7.0", "result": 99, "unit": "%"},
      {"measurement": "Percent Growth", "setting": "[8]; Log10 Concentration −8.0", "result": 99, "unit": "%"},
      {"measurement": "CC50", "setting": "[8]; read-out: LC50", "result": 30.5, "unit": "µM"},
      {"measurement": "GI50", "setting": "[9]", "result": 3.21, "unit": "µM"},
      {"measurement": "TGI", "setting": "[9]", "result": 10.5, "unit": "µM"},
      {"measurement": "Percent Growth", "setting": "[9]; Log10 Concentration −4.0", "result": "−96", "unit": "%"},
      {"measurement": "Percent Growth", "setting": "[9]; Log10 Concentration −5.0", "result": 2, "unit": "%"},
      {"measurement": "Percent Growth", "setting": "[9]; Log10 Concentration −6.0", "result": 99, "unit": "%"},
      {"measurement": "Percent Growth", "setting": "[9]; Log10 Concentration −7.0", "result": 98, "unit": "%"},
      {"measurement": "Percent Growth", "setting": "[9]; Log10 Concentration −8.0", "result": 99, "unit": "%"},
      {"measurement": "CC50", "setting": "[9]; read-out: LC50", "result": 33.8, "unit": "µM"},
      {"measurement": "GI50", "setting": "[10]", "result": 0.287, "unit": "µM"},
      {"measurement": "TGI", "setting": "[10]", "result": 1.06, "unit": "µM"},
      {"measurement": "Percent Growth", "setting": "[10]; Log10 Concentration −4.0", "result": "−92", "unit": "%"},
      {"measurement": "Percent Growth", "setting": "[10]; Log10 Concentration −5.0", "result": "−76", "unit": "%"},
      {"measurement": "Percent Growth", "setting": "[10]; Log10 Concentration −6.0", "result": 2, "unit": "%"},
      {"measurement": "Percent Growth", "setting": "[10]; Log10 Concentration −7.0", "result": 91, "unit": "%"},
      {"measurement": "Percent Growth", "setting": "[10]; Log10 Concentration −8.0", "result": 91, "unit": "%"},
      {"measurement": "GI50", "setting": "[11]", "result": 4.61, "unit": "µM"},
      {"measurement": "TGI", "setting": "[11]", "result": 18, "unit": "µM"},
      {"measurement": "Percent Growth", "setting": "[11]; Log10 Concentration −4.0", "result": "−71", "unit": "%"},
      {"measurement": "Percent Growth", "setting": "[11]; Log10 Concentration −5.0", "result": 24, "unit": "%"},
      {"measurement": "Percent Growth", "setting": "[11]; Log10 Concentration −6.0", "result": 101, "unit": "%"},
      {"measurement": "Percent Growth", "setting": "[11]; Log10 Concentration −7.0", "result": 103, "unit": "%"},
      {"measurement": "Percent Growth", "setting": "[11]; Log10 Concentration −8.0", "result": 102, "unit": "%"},
      {"measurement": "CC50", "setting": "[11]; read-out: LC50", "result": 60.7, "unit": "µM"},
      {"measurement": "GI50", "setting": "[12]", "result": 0.167, "unit": "µM"},
      {"measurement": "TGI", "setting": "[12]", "result": 0.375, "unit": "µM"},
      {"measurement": "Percent Growth", "setting": "[12]; Log10 Concentration −4.0", "result": "−71", "unit": "%"},
      {"measurement": "Percent Growth", "setting": "[12]; Log10 Concentration −5.0", "result": "−75", "unit": "%"},
      {"measurement": "Percent Growth", "setting": "[12]; Log10 Concentration −6.0", "result": "−60", "unit": "%"},
      {"measurement": "Percent Growth", "setting": "[12]; Log10 Concentration −7.0", "result": 82, "unit": "%"},
      {"measurement": "Percent Growth", "setting": "[12]; Log10 Concentration −8.0", "result": 95, "unit": "%"},
      {"measurement": "CC50", "setting": "[12]; read-out: LC50", "result": 0.845, "unit": "µM"}
    ]}
  ]
}
